Laboratory results from patent publication US20190263799A1, “1H-IMIDAZO[4,5-B]PYRIDINYL AND 2-OXO-2,3-DIHYDRO-1H-IMIDAZO[4,5-B]PYRIDINYL HETEROCYCLIC BET BROMODOMAIN INHIBITORS” (ZENITH EPIGENETICS LTD., priority 2015, published 2019).
Read-outs that look alike come from different tables or passages of the source.

Key:
BRD4(1) = target: T1, BRD4(1) (Homo sapiens, UniProt O60885); experiment: Inhibition of tetra-acetylated histone H4 binding to individual BET bromodomains (AlphaScreen); settings: His-tagged BRD4(1) 20 nM, biotinylated tetra-acetylated histone H4 peptide, 30 min incubation; read-out: FRET activity BRD4(1)
T1 construct: N-terminally His-tagged bromodomains (BRD4(1) at 20 nM and BRD4(2) at 100 nM); made in house; host or cells: E. coli BL21(DE3)
Procedure: Proteins were cloned and overexpressed with a N-terminal 6×His tag, then purified by nickel affinity followed by size exclusion chromatography. Briefly, E. coli BL21(DE3) cells were transformed with a recombinant expression vector encoding N-terminally Nickel affinity tagged bromodomains from Brd2, Brd3, Brd4. Cell cultures were incubated at 37° C. with shaking to the appropriate density and induced overnight with IPTG. The supernatant of lysed cells was loaded onto Ni-IDA column for purification. Eluted protein was pooled, concentrated and further purified by size exclusion chromatography. Fractions representing monomeric protein were pooled, concentrated, aliquoted, and frozen at −80° C. for use in subsequent experiments.
Binding of tetra-acetylated histone H4 peptide (Millipore) and BET bromodomains was confirmed by Amplified Luminescent Proximity Homogenous Assay (AlphaScreen). N-terminally His-tagged bromodomains (BRD4(1) at 20 nM and BRD4(2) at 100 nM) and biotinylated tetra-acetylated histone H4 (10-25 nM) were incubated in the presence of nickel chelate acceptor beads and streptavidin donor beads (PerkinAlmer, 6760000K) added to a final concentration of 2 μg/mL under green light in a white 96 well microtiter plate (Greiner). For inhibition assays, serially diluted compounds were added to the reaction mixtures in a 0.1% final concentrations of DMSO. Final buffer concentrations were 50 mM HEPES, 100 mM NaCl and 0.1% BSA buffer, pH 7.4 and optimized to 30 min incubation time. Assay plates were read at 570 nm on a Synergy H4 Plate Reader (Biotek). IC50 values were determined from a dose response curve.

MV4-11 cells = experiment: Inhibition of cell proliferation in cancer cell lines (MV4-11, CellTiter Aqueous One); format: cell-based; settings: Homo sapiens, read-out: Proliferation activity
Procedure: MV4-11 cells (CRL-9591) were plated at a density of 5×10^4 cells per well in 96 well flat bottom plates and treated with increasing concentrations of test compound or DMSO (0.1%) in IMDM media containing 10% FBS and penicillin/streptomycin. Triplicate wells were used for each concentration and a well containing only media was used as a control. Plates were incubated at 37° C., 5% CO2 for 72 h before adding 20 μL of the CellTiter Aqueous One Solution (Promega) to each well and incubating at 37° C., 5% CO2 for an additional 3-4 h. The absorbance was read at 490 nm in a spectrophotometer and the percentage of cell titer relative to DMSO-treated cells was calculated after correcting for background by subtracting the blank well's signal. IC50 values were calculated using the GraphPad Prism software.

cMYC = experiment: Inhibition of cMYC expression in cancer cell lines (MV4-11, real-time PCR); format: cell-based; settings: Homo sapiens, read-out: Myc activity
Procedure: MV4-11 cells (CRL-9591) were plated at a density of 2.5×10^4 cells per well in 96 well U-bottom plates and treated with increasing concentrations of test compound or DMSO (0.1%) in IMDM media containing 10% FBS and penicillin/streptomycin, and incubated for 3 h at 37° C. Triplicate wells were used for each concentration. Cells were pelleted by centrifugation and harvested using the mRNA Catcher PLUS kit according to manufacturer's instructions. The eluted mRNA isolated was then used in a one-step quantitative real-time PCR reaction, using components of the RNA UltraSense™ One-Step Kit (Life Technologies) together with Applied Biosystems TaqMan® primer-probes for cMYC and Cyclophilin. Real-time PCR plates were run on a ViiA™7 real time PCR machine (Applied Biosystems), data were analyzed, normalizing the Ct values for cMYC to an internal control, prior to determining the fold expression of each sample, relative to the control.

[1] = MV4-11 cells, 3 h incubation, cMYC mRNA

| SMILES | IC50 (BRD4(1)) [µM] | IC50 (MV4-11 cells; MV4-11 cells, 72 h incubation) [µM] | IC50 (cMYC; [1]) [µM] | IC50 (MV4-11 cells; MV4-11, 72 h) [µM] | IC50 (cMYC; MV4-11, 3 h) [µM] |
| --- | --- | --- | --- | --- | --- |
| CN(C)C(=O)N(C)c1cnc2nc(N3CCCC3)n(Cc3ccccc3)c2c1 [Example 35, 1-(1-Benzyl-2-(pyrrolidin-1-yl)-1H-imidazo[4,5-b]pyridin-6-yl)-1,3,3-trimethylurea] | 0.3 to 3 |  |  | 3 to 30 | 3 to 30 |
| CCOC(=O)N(C)c1cnc2nc(N3CCCC3)n(Cc3ccccc3)c2c1 [Example 36, Ethyl (1-benzyl-2-(pyrrolidin-1-yl)-1H-imidazo[4,5-b]pyridin-6-yl)(methyl)carbamate] | ≤ 0.3 |  |  | 0.3 to 3 | 0.3 to 3 |
| CC(C)OC(=O)N(C)c1cnc2nc(N3CCCC3)n(Cc3ccccc3)c2c1 [Example 37, Isopropyl (1-benzyl-2-(pyrrolidin-1-yl)-1H-imidazo[4,5-b]pyridin-6-yl)(methyl)carbamate] | 0.3 to 3 |  |  | 3 to 30 | 0.3 to 3 |
| C=CC(=O)N(C)c1cnc2nc(NC3CCN(C)CC3)n(Cc3ccccc3)c2c1 [Example 40, N-(1-Benzyl-2-((1-methylpiperidin-4-yl)amino)-1H-imidazo[4,5-b]pyridin-6-yl)-N-methylacrylamide] | ≤ 0.3 |  |  | 3 to 30 | 3 to 30 |
| C=CC(=O)N(C)c1cnc2nc(N3CC[C@@H](O)C3)n(Cc3ccccc3)c2c1 [Example 41, (R)—N-(1-Benzyl-2-(3-hydroxypyrrolidin-1-yl)-1H-imidazo[4,5-b]pyridin-6-yl)-N-methylacrylamide] | ≤ 0.3 |  |  | 3 to 30 | 3 to 30 |
| C=CC(=O)N(C)c1cnc2nc(N3CC(O)C3)n(Cc3ccccc3)c2c1 [Example 42, N-(1-Benzyl-2-(3-hydroxyazetidin-1-yl)-1H-imidazo[4,5-b]pyridin-6-yl)-N-methylacrylamide] | ≤ 0.3 |  |  | 3 to 30 | 3 to 30 |
| C=CC(=O)N(C)c1cnc2nc(N3CC[C@H](NC(C)=O)C3)n(Cc3ccccc3)c2c1 [Example 43, (S)—N-(2-(3-Acetamidopyrrolidin-1-yl)-1-benzyl-1H-imidazo[4,5-b]pyridin-6-yl)-N-methylacrylamide] | ≤ 0.3 | 3 to 30 | 3 to 30 |  |  |

More lines, main results first:

| IC50 (BRD4(1)) [µM] | IC50 (MV4-11 cells; MV4-11 cells, 72 h incubation) [µM] | IC50 (cMYC; [1]) [µM] | SMILES | IC50 (MV4-11 cells; MV4-11, 72 h) [µM] | IC50 (cMYC; MV4-11, 3 h) [µM] |
| --- | --- | --- | --- | --- | --- |
| 0.3 to 3 | 3 to 30 | 3 to 30 | CN(C(=O)CO)c1cnc2nc(N3CCCC3)n(Cc3ccccc3)c2c1 [Example 32, N-(1-Benzyl-2-(pyrrolidin-1-yl)-1H-imidazo[4,5-b]pyridin-6-yl)-2-hydroxy-N-methylacetamide] |  |  |
| 0.3 to 3 | 3 to 30 | 0.3 to 3 | CC(C)C(=O)N(C)c1cnc2nc(N3CCCC3)n(Cc3ccccc3)c2c1 [Example 33, N-(1-Benzyl-2-(pyrrolidin-1-yl)-1H-imidazo[4,5-b]pyridin-6-yl)-N-methylisobutyramide] |  |  |
| ≤ 0.3 | 0.3 to 3 | 0.3 to 3 | C[C@H](O)C(=O)N(C)c1cnc2nc(N3CCCC3)n(Cc3ccccc3)c2c1 [Example 34, (S)—N-(1-Benzyl-2-(pyrrolidin-1-yl)-1H-imidazo[4,5-b]pyridin-6-yl)-2-hydroxy-N-methylpropanamide] |  |  |
| ≤ 0.3 | 0.3 to 3 | 0.3 to 3 | C=CC(=O)N(C)c1cnc2nc(N3CC[C@H](N(C)C)C3)n(Cc3ccccc3)c2c1 [Example 38, (S)—N-(1-Benzyl-2-(3-(dimethylamino)pyrrolidin-1-yl)-1H-imidazo[4,5-b]pyridin-6-yl)-N-methylacrylamide] |  |  |
| ≤ 0.3 | 0.3 to 3 | 0.3 to 3 | C=CC(=O)N(C)c1cnc2nc(N3CC[C@@H](N(C)C)C3)n(Cc3ccccc3)c2c1 [Example 39, (R)—N-(1-Benzyl-2-(3-(dimethylamino)pyrrolidin-1-yl)-1H-imidazo[4,5-b]pyridin-6-yl)-N-methylacrylamide] |  |  |
| ≤ 0.3 | 3 to 30 | 0.3 to 3 | C=CC(=O)N(C)c1cnc2nc(N3CC[C@@H](NC(C)=O)C3)n(Cc3ccccc3)c2c1 [Example 44, (R)—N-(2-(3-Acetamidopyrrolidin-1-yl)-1-benzyl-1H-imidazo[4,5-b]pyridin-6-yl)-N-methylacrylamide] |  |  |
| ≤ 0.3 | 0.3 to 3 | 0.3 to 3 | C=CC(=O)N(C)c1cnc2nc(N3CC[C@@H](CO)C3)n(Cc3ccccc3)c2c1 [Example 45, (R)—N-(1-Benzyl-2-(3-(hydroxymethyl)pyrrolidin-1-yl)-1H-imidazo[4,5-b]pyridin-6-yl)-N-methylacrylamide] |  |  |
| ≤ 0.3 | 0.3 to 3 | 0.3 to 3 | C=CC(=O)N(C)c1cnc2nc(N3CC[C@H](O)C3)n(Cc3ccccc3)c2c1 [Example 46, (S)—N-(1-Benzyl-2-(3-hydroxypyrrolidin-1-yl)-1H-imidazo[4,5-b]pyridin-6-yl)-N-methylacrylamide] |  |  |
| ≤ 0.3 | 3 to 30 | 0.3 to 3 | C=CC(=O)N(C)c1cnc2nc(N3CC(N(C)C)C3)n(Cc3ccccc3)c2c1 [Example 47, N-(1-Benzyl-2-(3-(dimethylamino)azetidin-1-yl)-1H-imidazo[4,5-b]pyridin-6-yl)-N-methylacrylamide] |  |  |
| ≤ 0.3 | 0.3 to 3 | 0.3 to 3 | C=CC(=O)N(C)c1cnc2nc(N3Cc4cnn(C)c4C3)n(Cc3ccccc3)c2c1 [Example 48, N-(1-Benzyl-2-(1-methylpyrrolo[3,4-c]pyrazol-5(1H,4H,6H)-yl)-1H-imidazo[4,5-b]pyridin-6-yl)-N-methylacrylamide] |  |  |
